For test [1], the system named is CTNNB1-mutant cancer cell lines (A427, LS 174T, HCT116, SW48). Nature of the test: Cell proliferation assays, panel of sixty-six cancer cell lines: CTNNB1-mutant cell lines. The format is cell-based, human.
The next test has as its system HCT116 cells. Nature of the test: Proliferation assay with isogenic cell line pair: parental HCT116 (S45del/+) and isogenic derivative lacking mutated CTNNB1. The format is cell-based, human. As to conditions: for Δefficacy: difference in maximum percentage effect, isogenic (−/+) versus parental HCT116 (S45del/+), negative = parental more sensitive.

On to `COc1cc(C(=O)NC2CCOCC2)ccc1Nc1ncc2c(n1)-n1ccc(C(=O)Nc3c(C)cccc3C)c1CC2` [Example 8, N-(2,6-dimethylphenyl)-2-[2-methoxy-4-(tetrahydropyran-4-ylcarbamoyl)anilino]-5,6-dihydropyrimido[4,5-e]indolizine-7-carboxamide], for which the “ΔpIC50” value in test [1] is reported as −0.57. Moreover, the IC50 in test [1] (Homo sapiens, 120 h, read-out: pIC50 average Mutant (converted)) is 11 nM. Further, in the test with HCT116 cells, the ΔpIC50 was −0.29 and the Δefficacy is recorded as −11.

Turning to `COCC(=O)N1CCN(c2ccc(Nc3ncc4c(n3)-n3ccc(C(=O)Nc5c(C)cccc5C)c3CC4)c(OC)c2)CC1` [Example 17, N-(2,6-dimethylphenyl)-2-[2-methoxy-4-[4-(2-methoxyacetyl)piperazin-1-yl]anilino]-5,6-dihydropyrimido[4,5-e]indolizine-7-carboxamide], the Δefficacy in the test on HCT116 cells is reported as −16.

With `COc1ccc(Oc2cc(NCC3CCOCC3)c3ncc(-c4ccc(C(=O)NC5CC5)c(C)c4)n3n2)c(F)c1F` [Example 5, N-cyclopropyl-4-[6-(2,3-difluoro-4-methoxy-phenoxy)-8-(tetrahydropyran-4-ylmethylamino)imidazo[1,2-b]pyridazin-3-yl]-2-methyl-benzamide, reference compound], the Δefficacy with HCT116 cells is on record as −26.

On to `CCc1n[nH]c(CC)c1NC(=O)c1ccn2c1CCc1cnc(Nc3ccc(N4CCN(C)CC4)cc3OC(F)F)nc1-2` [Example 12, N-(3,5-diethyl-1H-pyrazol-4-yl)-2-[2-(difluoromethoxy)-4-(4-methylpiperazin-1-yl)anilino]-5,6-dihydropyrimido[4,5-e]indolizine-7-carboxamide], for which the Δefficacy in the test on HCT116 cells was −18.

Source of the values: patent US11208696B2, “Prognostic biomarkers for TTK inhibitor chemotherapy” (NETHERLANDS TRANSLATIONAL RESEARCH CENTER B.V., priority 2015, dated 2021).
